The target in assay [1] is T1, M2 muscarinic receptor (M2 wt) (Homo sapiens, UniProt P08172).
T1 construct: gene CHRM2
T1 sequence (P08172 1-466): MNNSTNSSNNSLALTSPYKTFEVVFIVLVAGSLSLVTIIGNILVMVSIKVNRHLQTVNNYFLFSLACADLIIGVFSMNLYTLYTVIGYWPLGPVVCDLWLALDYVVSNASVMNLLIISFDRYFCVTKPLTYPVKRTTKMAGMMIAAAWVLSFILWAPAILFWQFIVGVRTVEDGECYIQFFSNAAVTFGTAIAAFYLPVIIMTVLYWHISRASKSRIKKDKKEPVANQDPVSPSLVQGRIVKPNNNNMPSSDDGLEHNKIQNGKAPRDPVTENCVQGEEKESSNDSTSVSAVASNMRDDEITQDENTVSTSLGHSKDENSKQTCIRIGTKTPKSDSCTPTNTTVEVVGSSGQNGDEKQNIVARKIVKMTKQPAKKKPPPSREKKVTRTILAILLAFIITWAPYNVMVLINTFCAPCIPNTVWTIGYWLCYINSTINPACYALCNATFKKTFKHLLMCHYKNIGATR
The assay is described as follows: slowing of [3H]NMS dissociation by cold NMS, CHO membranes. The class given is binding. The conditions noted are these: second site; allosteric; apparent affinity for the receptor-[3H]NMS complex; slope factor nH fitted; pH […] °C, […] NaCl, […] MgCl2.

Assay [2] addresses T2, M5 muscarinic receptor (Homo sapiens, UniProt P08912).
T2 construct: gene CHRM5; expressed in CHO cells, membranes; species printed only for M2 and M3
T2 sequence (P08912 1-532): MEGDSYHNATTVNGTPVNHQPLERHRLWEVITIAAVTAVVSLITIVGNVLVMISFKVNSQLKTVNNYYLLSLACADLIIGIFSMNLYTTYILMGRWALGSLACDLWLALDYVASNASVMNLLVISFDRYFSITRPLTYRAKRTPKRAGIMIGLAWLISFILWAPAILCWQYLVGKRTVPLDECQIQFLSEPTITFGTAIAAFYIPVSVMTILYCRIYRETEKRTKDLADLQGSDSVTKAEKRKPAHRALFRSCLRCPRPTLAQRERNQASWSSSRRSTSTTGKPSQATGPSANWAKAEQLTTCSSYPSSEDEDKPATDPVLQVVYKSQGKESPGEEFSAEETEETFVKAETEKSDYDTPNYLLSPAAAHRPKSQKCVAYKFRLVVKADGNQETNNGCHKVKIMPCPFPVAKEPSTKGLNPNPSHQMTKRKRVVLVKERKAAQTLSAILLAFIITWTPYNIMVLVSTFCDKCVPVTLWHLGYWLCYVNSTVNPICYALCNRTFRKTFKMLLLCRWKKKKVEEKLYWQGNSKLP
Described as above. The class given is binding. Particulars: second site; allosteric; apparent affinity for the receptor-[3H]NMS complex; slope factor nH fitted; pH […] °C, […] NaCl, […] MgCl2.
Excerpt: slowing of [3H]NMS dissociation by cold NMS, CHO membranes on M5 muscarinic receptor

For the compound `C[N+]1(C)[C@@H]2C[C@@H](OC(=O)[C@H](CO)c3ccccc3)C[C@H]1[C@@H]1O[C@@H]12` [N-methylscopolamine], the results for the “NMS / pKA” value in assay [1] and in assay [2] were 3.62 ± 0.03 negative logarithm and 3.86 ± 0.03 negative logarithm, respectively.

These data come from publication PMC5238504 (Scientific Reports, 2017).
